# US20100221398A1, “PRESERVATIVE” (priority 2007, published 2010)
# What was measured:
# [1] = tested on: PadA1 activity in A. niger conidiospores; experiment: 4-MCA cloud disappearance (OD 600 nm) assay for PadA1 activity in mould spores; format: cell-based, Aspergillus niger; details: 1 mM 4-methylcinnamic acid + 1 mM putative inhibitor, 10^6 conidiospores/ml, ACM pH 4.0, 28 C, samples at 5 and 72 hours
# Description: FIG. 2—illustrates the disappearance of the dense cloud of 4-methylcinnamic acid after addition of A. niger spores. The strain of A. niger used is A. niger N402. 10^6 A. niger conidiospores/ml were added to ACM medium (Aspergillus Complete Medium—which contains per one litre of water, 20 g glucose, 1.5 g casamino acids, 2 g bacteriological peptone, 1.5 g yeast extract, 6 g […], 0.52 g potassium chloride, 0.52 g magnesium sulphate heptahydrate, 1.52 g potassium orthophosphate, 1 mg ferrous sulphate, 1 mg zinc sulphate) at pH 4.0 containing 1 mM 4-methylcinnamic acid at time 0. Replicate cultures of 10 mls medium in 30 ml sealed bottles were incubated at 28° C. and shaken at 120 rpm on an orbital shaker. Each point represents the mean value of two bottles removed, sampled, and tested in a spectrophotometer at 600 nm;
# 10^6 A. niger conidiospores/ml were added to ACM medium at pH 4.0 containing 1 mM 4-methylcinnamic acid at time 0 (control—circles). Replicate cultures contained 1 mM 4-methylcinnamic acid+1 mM cinnamaldehyde (squares). Bottles were incubated at 28° C. and shaken at 120 rpm on an orbital shaker.
# In the examples below a carboxylic acid similar to sorbic acid was used as it has unexpected properties which allow it to be easily assayed. The acid used was 4-methylcinnamic acid (4-MCA), which like sorbic acid is degraded by A. niger spores.
# Unexpectedly 4-MCA forms a dense white cloud when added to water or growth media for moulds (such as ACM). The opacity of the cloud, when measured at an OD of 600 nm, is directly proportional to the concentration of 4-MCA. This makes it easy to assay for changes in 4-MCA levels. Up until now degradation of 4-MCA and sorbic acid has been determined through the detection of the volatile products produced after decarboxylation. The volatile products can be detected by using GCMS (Gas Chromatography/Mass Spectrometry), which is a slow and time consuming process.
# It is understood that PadA1 in the germinating mould spores degrades the 4-MCA causing the white cloud to progressively disappear. Cloud disappearance is also accompanied by appearance of 4-methylstyrene in the headspace above the liquid medium (as illustrated in FIG. 3), which is measured by GCMS.
# (§1) All compounds were tested to see if they prevented the degradation of 4-MCA by adding 10^6 A. niger conidiospores/ml to ACM medium at pH 4.0 containing 1 mM 4-methylcinnamic acid+1 mM putative inhibitor. Bottles were incubated at 28° C. and shaken at 120 rpm on an orbital shaker. Samples were taken at 5 and 72 hours.
# [2] = tested on: A. niger N402 conidiospores; experiment: MIC determination in ACM medium pH 4.0; format: cell-based, Aspergillus niger; details: 1000 A. niger N402 conidiospores/ml, ACM pH 4.0, 28 C, 28 days, triplicate
# Description: The possibility that the compounds found to inhibit 4-MCA degradation were acting as toxic agents was examined, by determination of their MIC (Minimum Inhibitory Concentration) values. The MIC value is the lowest concentration of inhibitor that will completely prevent growth of a microbe. In this case, MIC values were determined by preparation of a triplicate series of bottles of ACM medium (pH 4.0 10 mls) each bottle containing progressively higher concentrations of an inhibitor. Bottles were inoculated with 1000 A. niger N402 conidiospores/ml and were incubated at 28° C. for 28 days. The MIC was the lowest concentration of inhibitor preventing mould growth in all three replicates, and any other higher concentration of inhibitor.
# [3] = tested on: A. niger conidiospores; experiment: Mould growth in bottles containing 1 mM 4-MCA + 1 mM putative inhibitor; format: cell-based, Aspergillus niger; details: 1 mM 4-MCA + 1 mM compound
# Description: as §1
# Furthermore, other compounds generally more mould-toxic than the compounds listed in Table 2, were not able to inhibit mould growth when allied with 4-MCA at 1 mM e.g. (2,4-decadienal).
# [4] = tested on: Aspergillus niger strain N402 conidiospores; experiment: Spoilage of synthetic soft drink (ACM pH 4.0) with 300 ppm sorbic acid; format: cell-based; details: 300 ppm sorbic acid (2.68 mM) without PadA1 inhibitor, 28 days at 28 C
# Description: Tests were carried out using ACM medium, pH 4.0, as a synthetic soft drink. Sorbic acid was added to the ACM, synthetic soft drink, at 300 ppm, which is the maximum level permitted in Europe.
# The method used involved placing 10 ml of ACM pH 4.0+300 ppm sorbic acid (2.68 mM) in glass bottles (all experiments were carried out in triplicate) and inncoculating each 10 mls with 1000 conidiospores per ml of Aspergillus niger strain N402. Growth was measured after 28 days incubation at 28° C. PadA1 inhibitors of Formula I were added at 0, 0.025 mM, 0.05 mM, 0.1 mM, 0.15 mM, 0.2 mM, 0.3 mM, 0.4 mM, 0.5 mM, 0.6 mM, 0.8 mM, 1 mM.
Structure (SMILES),inhibition of degradation of 4-MCA by germinating conidiospores of A. niger [1],mould growth in bottles with 4-MCA + compound [3],also measured
"CCCCCC=CC=CC=O [2,4-decadienal]",does not block PadA1 activity,Mould growth occurred,"MIC (Minimum Inhibitory Concentration), comparison in words [2]: lower MIC than any of the compounds listed on Table 2"
"CC=CC=CC(=O)O [sorbic acid, 2,4-hexadienoic acid]",,,"prevention of spoilage by A. niger conidiospores of the synthetic soft drink, sorbic acid alone [4]: insufficient to prevent spoilage"
O=CC#Cc1ccccc1 [phenyl propargyl aldehyde],inhibited degradation,,
O=CC=Cc1ccccc1 [Cinnamaldehyde],inhibits the degradation,,
O=C(O)C#Cc1ccccc1 [Phenyl propiolic acid],inhibited degradation,,
"CCC=CC=CC=O [2,4-Heptadienal]",,not,
